Test results published in patent US6319910A, “Method for inhibiting cyclooxygenase-2 and tumor necrosis factor alpha” (Hospital for Joint Diseases, priority 1998, dated 2001).

Experiments:
bovine chondrocytes [1] = assay: PGE2 production in LPS stimulated bovine chondrocytes (radioimmunoassay); type: cell-based; conditions: FIGS. 3 and 9, words
Experimental: After 48 hours the medium was changed and the cells were incubated with CMT-3 or N-monomethyl arginine (NMMA) for 2 hours before stimulating them with 100 μg/ml LPS. DMSO was used as a carrier for the modulators and the DMSO concentration was maintained (<0.01% v/v) in the cultures. Equivalent amounts of DMSO was also added to the control cultures. The levels of COX-2 dependent PGE2 release was assayed after 72 hrs by radioimmunoassay. […] The data represents mean±SD which was evaluated by T test where n=3.

COX-2 [2] = assay: Expression/modification (size) of COX-2 in LPS-stimulated murine macrophages, Western blot; type: cell-based; conditions: LPS 100 ng/ml
Experimental: RAW 263.7 cells were grown as previously described (Amin et al, 1995b). Murine macrophages stimulated with 100 ng/ml LPS were incubated with CMT-3 or tunicamycin (a glycosylation inhibitor). […] Nitrite and PGE2 were estimated as previously described (Amin et al, 1995b). It is quite possible that CMT-3 may inhibit COX-2 and PGE2 production by post translational modification of COX-2 which may be similar to tunicamycin inhibition. The data represents the mean±SD evaluated by T test (n=3).
Murine macrophage cells were cultivated as previously described (Amin et al, 1995b). […] cells were stimulated with 100 ng/ml of LPS in the presence of CMT-3, CMT-5 and glycosylation inhibitor, tunicamycin. The cells were grown for 16 hr and harvested. The cell free extracts were prepared as previously described (Amin et al, 1995b). In FIG. 4A, 50 μg of protein was loaded in each well and run on SDS-PAGE gels and blotted onto Western blots using a specific anti COX-2 antibody as previously described (Amin et al, 1997a). The positive control is a standard COX-2. […] The size is approximately 2000 D smaller (CMT-3 form) than the native COX-2 shown as a standard. […] These experiments indicate that CMT-3 induces modification of the COX-2 protein. The SDS PAGE analysis and Western blotting of COX-2 was carried out as described above.

bovine chondrocytes [3] = assay: Nitrite (NO) production in LPS stimulated bovine chondrocytes; type: cell-based; conditions: FIGS. 3 and 9; LPS 100 μg/ml; words
[4] = words; cited from earlier work
COX-2 [5] = assay: COX-2 expression in cells/cartilage (general statement); type: cell-based; conditions: words
TNFα = TNFα release in the medium by HEK 293 cells permanently transfected with human proTNFα (ELISA); type: cell-based; conditions: words

## NC(=O)C1=C(O)C2(O)C(=O)C3=C(O)c4c(O)cccc4CC3CC2CC1=O (centres unmarked) [CMT-3, 6-demethyl-6-deoxy-4-dedimethylaminotetracycline]
Bovine chondrocytes [1]; LPS 100 μg/ml, 72 hrs
  Effect on PGE2 production: inhibit NO and PGE2 production
Bovine chondrocytes [1]
  Effect on L-NMMA induced PGE2 up-regulation: inhibits the L-NMMA induced PGE2 up-regulation
COX-2 [2]; FIG. 2, words
  Effect on COX-2 expression: inhibit
COX-2 [2]; FIG. 4A, 16 hr, Western blot
  Decrease in size of COX-2 versus native COX-2: approximately 2000 D
COX-2 [2]; FIG. 4A, 16 hr, Western blot, words
  Effect on size of COX-2: decrease in the size of COX-2
Bovine chondrocytes [3]
  Effect on NO production: inhibit NO and PGE2 production
[4]
  Antimicrobial activity: no antimicrobial activity
COX-2 [5]
  Effect on COX-2 expression: inhibits COX-2 expression and PGE2 production
TNFα; FIG. 7
  Effect on TNFα release in the medium: inhibits TNFα release in the medium in a dose dependent manner
TNFα; FIG. 8, 16 hours
  Effect on spontaneous TNFα release: inhibit the spontaneous TNFα release
TNFα; HEK 293 cells transfected with proTNFα cDNA, low levels
  Inhibition of TNFα (summary statement): inhibiting TNFα
